Measured values published in the NIST ThermoML archive (doi:10.1016/j.jct.2007.03.012).

Conditions: Liquid, Bellows volumetry

CCC [propane]
mass density [kg/m3]
Conditions | 280 K | 300 K | 320 K | 340 K | 360 K | 380 K | 400 K | 420 K | 440 K
1000 kPa | 520.5 | 489.81 | – | – | – | – | – | – | –
2000 kPa | 522.64 | 492.87 | 457.48 | – | – | – | – | – | –
3000 kPa | 524.74 | 495.95 | 462.23 | 418.14 | – | – | – | – | –
5000 kPa | 528.56 | 501.37 | 470.53 | 433.26 | 380.9 | – | – | – | –
10000 kPa | 537.44 | 512.99 | 486.59 | 457.48 | 424.08 | 384.1 | 334.74 | – | –
20000 kPa | 551.94 | 530.94 | 509.27 | 486.91 | 463.3 | 438.22 | 411.69 | 384.77 | 357.43
30000 kPa | 563.74 | 544.91 | 525.89 | 506.87 | 487.16 | 466.67 | 445.87 | 425.47 | 405.22
40000 kPa | 573.78 | 556.1 | 539.36 | 522.28 | 505.03 | 487.15 | 469.1 | 451.66 | 434.68
50000 kPa | 582.55 | 566.32 | 550.64 | 534.97 | 519.45 | 503.08 | 486.87 | 471.39 | 456.37
60000 kPa | 590.49 | 575.16 | 560.7 | 545.94 | 531.56 | 516.47 | 501.44 | 487.29 | 473.51
70000 kPa | 597.67 | 583.22 | 569.45 | 555.7 | 542.12 | 527.94 | 513.89 | 500.74 | 488.02
80000 kPa | 604.54 | 590.34 | 577.41 | 564.27 | 551.67 | 538.06 | 524.67 | 512.43 | 500.46
90000 kPa | 610.6 | 597.08 | 584.63 | 572.21 | 560.11 | 547.06 | 534.43 | 522.77 | 511.55
100000 kPa | 616.37 | 603.47 | 591.38 | 579.45 | 568.02 | 555.29 | 543.41 | 532.04 | 521.4
120000 kPa | 627.11 | 614.69 | 603.54 | 592.54 | 581.93 | 570.05 | 558.91 | 548.04 | 538.39
140000 kPa | 636.51 | 624.98 | 614.39 | 603.89 | 593.99 | 582.94 | 572.19 | 562.28 | 553.07
160000 kPa | 645.22 | 634.04 | 624.07 | 614.28 | 604.85 | 594.15 | 583.93 | 574.66 | 565.84
180000 kPa | 653.38 | 642.55 | 632.92 | 623.6 | 614.61 | 604.41 | 594.64 | 585.51 | 577.32
200000 kPa | 660.82 | 650.24 | 641.18 | 632.17 | 623.73 | 613.68 | 604.15 | 595.61 | 587.63
